The structures appear in SMILES notation.

The subject of test [1] is Nucleic Acid. The test is described as follows: Duplex stability of RNA counter strand assessed as melting temperature. The test is classed as nucleic-acid assay.
Test [2] can be described thus: Antisense effect in human 607B cells assessed as down-regulation of bcl2 expression at 100 nM after 48 hrs by Western blot analysis relative to control. The class given is functional.
Test [3] deals with Nucleic Acid. Put plainly: Duplex stability of DNA counter strand assessed as melting temperature. The test is classed as nucleic-acid assay.

`Cc1cn([C@H]2C[C@H](OP(O)(=S)OC[C@H]3O[C@@H](n4ccc(N)nc4=O)[C@H](O)[C@@H]3OP(O)(=S)OC[C@H]3O[C@@H](n4cc(C)c(=O)[nH]c4=O)C[C@@H]3O)[C@@H](COP(O)(=S)O[C@H]3[C@@H](O)[C@H](n4ccc(N)nc4=O)O[C@@H]3COP(O)(=S)O[C@H]3[C@@H](O)[C@H](n4ccc(N)nc4=O)O[C@@H]3COP(O)(=S)O[C@H]3[C@@H](O)[C@H](n4ccc(N)nc4=O)O[C@@H]3COP(O)(=S)O[C@H]3[C@@H](O)[C@H](n4cnc5c(N)ncnc54)O[C@@H]3COP(O)(=S)O[C@H]3[C@@H](O)[C@H](n4cnc5c(=O)[nH]c(N)nc54)O[C@@H]3COP(O)(=S)O[C@H]3[C@@H](O)[C@H](n4ccc(N)nc4=O)O[C@@H]3COP(O)(=S)O[C@H]3[C@@H](O)[C@H](n4cnc5c(=O)[nH]c(N)nc54)O[C@@H]3COP(O)(=S)O[C@H]3C[C@H](n4cc(C)c(=O)[nH]c4=O)O[C@@H]3COP(O)(=S)O[C@H]3[C@@H](O)[C@H](n4cnc5c(=O)[nH]c(N)nc54)O[C@@H]3COP(O)(=S)O[C@H]3[C@@H](O)[C@H](n4ccc(N)nc4=O)O[C@@H]3COP(O)(=S)O[C@H]3[C@@H](O)[C@H](n4cnc5c(=O)[nH]c(N)nc54)O[C@@H]3COP(O)(=S)O[C@H]3[C@@H](O)[C@H](n4ccc(N)nc4=O)O[C@@H]3COP(O)(=S)O[C@H]3[C@@H](O)[C@H](n4ccc(N)nc4=O)O[C@@H]3COP(O)(=S)O[C@H]3[C@@H](O)[C@H](n4cnc5c(N)ncnc54)O[C@@H]3COP(O)(=S)O[C@H]3[C@@H](NCCCNCCCCNCCCN)[C@H](n4ccc(=O)[nH]c4=O)O[C@@H]3CO)O2)c(=O)[nH]c1=O` (stereo partly specified): the Tm (in general, the temperature at which the thermal transition is half complete) was 53.5 °C in test [1] and 68.5 °C in test [3]. In test [2], the Activity is listed as 19.4%.
The matching figures for `Cc1cn([C@H]2C[C@H](OP(O)(=S)OC[C@H]3O[C@@H](n4ccc(N)nc4=O)[C@H](O)[C@@H]3OP(O)(=S)OC[C@H]3O[C@@H](n4cc(C)c(=O)[nH]c4=O)C[C@@H]3O)[C@@H](COP(O)(=S)O[C@H]3[C@@H](O)[C@H](n4ccc(N)nc4=O)O[C@@H]3COP(O)(=S)O[C@H]3[C@@H](O)[C@H](n4ccc(N)nc4=O)O[C@@H]3COP(O)(=S)O[C@H]3[C@@H](O)[C@H](n4ccc(N)nc4=O)O[C@@H]3COP(O)(=S)O[C@H]3[C@@H](O)[C@H](n4cnc5c(N)ncnc54)O[C@@H]3COP(O)(=S)O[C@H]3[C@@H](O)[C@H](n4cnc5c(=O)[nH]c(N)nc54)O[C@@H]3COP(O)(=S)O[C@H]3[C@@H](O)[C@H](n4ccc(N)nc4=O)O[C@@H]3COP(O)(=S)O[C@H]3[C@@H](O)[C@H](n4cnc5c(=O)[nH]c(N)nc54)O[C@@H]3COP(O)(=S)O[C@H]3C[C@H](n4cc(C)c(=O)[nH]c4=O)O[C@@H]3COP(O)(=S)O[C@H]3[C@@H](O)[C@H](n4cnc5c(=O)[nH]c(N)nc54)O[C@@H]3COP(O)(=S)O[C@H]3[C@@H](O)[C@H](n4ccc(N)nc4=O)O[C@@H]3COP(O)(=S)O[C@H]3[C@@H](O)[C@H](n4cnc5c(=O)[nH]c(N)nc54)O[C@@H]3COP(O)(=S)O[C@H]3[C@@H](O)[C@H](n4ccc(N)nc4=O)O[C@@H]3COP(O)(=S)O[C@H]3[C@@H](O)[C@H](n4ccc(N)nc4=O)O[C@@H]3COP(O)(=S)O[C@H]3[C@@H](O)[C@H](n4cnc5c(N)ncnc54)O[C@@H]3COP(O)(=S)O[C@H]3[C@@H](NCCCNCCCCNCCCNCCCN)[C@H](n4ccc(=O)[nH]c4=O)O[C@@H]3CO)O2)c(=O)[nH]c1=O` (stereo partly specified): 53.6 °C, 71.6 °C and 18.5%.

The values above are taken from ChEMBL document CHEMBL1153884, “Oligonucleotide-polyamine conjugates: influence of length and position of 2'-attached polyamines on duplex stability and antisense effect” (2009).
